Each molecule was assayed against H1047R PIK3CA enzyme (Homo sapiens, UniProt P42336, H1047R) (assay: ADP-Glo Biochemical PIK3CA Kinase Assay).
Chain of H1047R PIK3CA enzyme (P42336 whole entry H1047R): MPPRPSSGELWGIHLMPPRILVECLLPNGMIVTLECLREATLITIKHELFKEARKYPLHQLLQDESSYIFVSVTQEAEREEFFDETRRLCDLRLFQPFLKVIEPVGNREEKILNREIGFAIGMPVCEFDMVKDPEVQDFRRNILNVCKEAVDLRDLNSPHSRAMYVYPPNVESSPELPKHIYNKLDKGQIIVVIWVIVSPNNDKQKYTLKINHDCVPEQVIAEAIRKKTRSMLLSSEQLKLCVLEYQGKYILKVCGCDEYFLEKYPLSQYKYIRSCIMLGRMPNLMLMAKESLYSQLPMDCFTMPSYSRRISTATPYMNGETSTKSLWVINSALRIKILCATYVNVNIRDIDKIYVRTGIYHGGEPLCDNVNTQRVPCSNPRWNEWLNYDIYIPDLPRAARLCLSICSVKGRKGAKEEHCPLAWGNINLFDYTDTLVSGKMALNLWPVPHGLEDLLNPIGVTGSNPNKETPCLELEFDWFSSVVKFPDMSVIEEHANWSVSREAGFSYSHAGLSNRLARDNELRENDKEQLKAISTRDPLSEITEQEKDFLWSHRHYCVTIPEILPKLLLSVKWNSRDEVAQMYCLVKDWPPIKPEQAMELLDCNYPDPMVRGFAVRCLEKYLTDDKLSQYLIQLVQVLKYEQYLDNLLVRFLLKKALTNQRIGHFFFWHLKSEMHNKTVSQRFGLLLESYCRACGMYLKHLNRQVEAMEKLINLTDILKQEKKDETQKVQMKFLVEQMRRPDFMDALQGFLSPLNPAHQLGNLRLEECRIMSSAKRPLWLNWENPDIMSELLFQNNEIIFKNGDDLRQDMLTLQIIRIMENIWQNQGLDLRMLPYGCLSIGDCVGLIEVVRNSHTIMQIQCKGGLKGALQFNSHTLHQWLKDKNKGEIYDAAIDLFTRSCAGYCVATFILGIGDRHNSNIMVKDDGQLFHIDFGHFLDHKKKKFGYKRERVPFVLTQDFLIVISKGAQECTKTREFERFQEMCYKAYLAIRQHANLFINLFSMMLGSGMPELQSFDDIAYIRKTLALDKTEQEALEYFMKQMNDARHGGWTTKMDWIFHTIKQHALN
Chain of H1047R PIK3CA enzyme (P27986 whole entry partner): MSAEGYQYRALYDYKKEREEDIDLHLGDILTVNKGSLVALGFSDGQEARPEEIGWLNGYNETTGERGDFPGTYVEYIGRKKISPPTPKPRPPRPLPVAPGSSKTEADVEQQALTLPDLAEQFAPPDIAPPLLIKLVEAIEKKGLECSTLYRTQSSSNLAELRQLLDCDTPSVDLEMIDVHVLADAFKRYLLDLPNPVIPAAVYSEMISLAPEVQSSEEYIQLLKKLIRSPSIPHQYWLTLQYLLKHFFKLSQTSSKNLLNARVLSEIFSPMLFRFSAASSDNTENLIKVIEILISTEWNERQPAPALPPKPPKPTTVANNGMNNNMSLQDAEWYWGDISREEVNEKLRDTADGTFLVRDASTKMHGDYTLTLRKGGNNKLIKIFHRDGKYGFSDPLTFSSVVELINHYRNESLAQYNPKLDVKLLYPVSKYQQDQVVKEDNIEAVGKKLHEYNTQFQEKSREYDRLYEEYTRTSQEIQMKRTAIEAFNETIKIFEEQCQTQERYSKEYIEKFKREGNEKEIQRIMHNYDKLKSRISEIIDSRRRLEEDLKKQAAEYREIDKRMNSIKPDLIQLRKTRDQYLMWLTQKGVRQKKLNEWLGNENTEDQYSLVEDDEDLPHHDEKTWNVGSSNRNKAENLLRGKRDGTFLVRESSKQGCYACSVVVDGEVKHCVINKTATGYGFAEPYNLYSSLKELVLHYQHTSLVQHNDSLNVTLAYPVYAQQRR
In the case of CC(C)(C#N)n1cc(-c2cc(NC(=O)c3cc(F)cc(C(F)(F)F)c3)c3c(c2)C(=O)N[C@H]3c2cc(F)ccc2Cl)cn1 (racemic) [Compound I-1661], the IC50 is reported as ≤ 0.1 µM.
For N#CCc1cc(NC(=O)N2C[C@H](O)c3cc(F)ccc32)c2c(c1)C(=O)N[C@H]2c1cc(F)ccc1Cl (single isomer, unassigned) [Compound I-2539], the IC50 was 1 to 10 µM.
With NC1(C(=O)Nc2cc(-c3ccc4ncnn4c3)cc3c2C(c2cc(F)ccc2Cl)NC3=O)CCCC1 (stereo not drawn) [Compound I-1812] the IC50 was 10 to 100 µM.
O=C(Nc1cc(-c2ncc[nH]2)cc2c1C(c1cc(F)ccc1Cl)NC2=O)c1cc(F)cc(C(F)(F)F)c1 (stereo not drawn) [Compound I-712] was tested, and the IC50 was ≤ 0.1 µM.
Molecule O=C1NC(c2cc(F)ccc2Cl)c2c1cccc2-n1cc2ccccc2cc1=O (stereo not drawn) [Compound I-1580] has an IC50 of 10 to 100 µM.
Work on O=C(Nc1cc(Br)cc2c1C(c1cc(F)ccc1Cl)NC2=O)c1cc(F)cc(CC(F)(F)F)c1 (stereo not drawn) [Compound I-1582] yielded an IC50 of 0.5 to 1 µM.
O=C(Nc1cc(-c2cnc(C(O)CO)nc2)cc2c1C(c1cc(F)ccc1Cl)NC2=O)c1cc(F)cc(C(F)(F)F)c1 (stereo not drawn) [Compound I-1542] was tested, and the IC50 was ≤ 0.1 µM.
With CC(C)(O)Cc1cc(NC(=O)c2cc(F)cc(C(F)(F)F)c2)c2c(c1)C(=O)N[C@H]2c1cc(F)ccc1Cl [Compound I-621] the IC50 was ≤ 0.1 µM.
Molecule O=C1N[C@@H](c2cc(F)ccc2Cl)c2c(NC(=O)N3C[C@@](O)(C(F)(F)F)c4cc(F)ccc43)ccc(Cl)c21 (single isomer, unassigned) [Compound I-2621] has an IC50 of 0.5 to 1 µM.
O=C(Nc1cc(Br)cc2c1C(c1cc(F)ccc1Cl)NC2=O)c1cc(Cl)ccc1C(F)F (stereo not drawn) [Compound I-911] was tested, and the IC50 was 1 to 10 µM.
In the case of [2H][C@@]1(c2cc(F)ccc2Cl)NC(=O)c2cccc(NC(=O)N3C[C@](O)(C(F)(F)F)c4cc(F)ccc43)c21 (single isomer, unassigned) [Compound I-2681], the IC50 is reported as 1 to 10 µM.
Molecule O=C1NC(c2cc(F)ccc2Cl)c2c(NC(=O)N3CCCC3)cc(-c3ccc4ncnn4c3)cc21 (stereo not drawn) [Compound I-1720] has an IC50 of 10 to 100 µM.
In the case of O=C(Nc1cc(NC(=O)C2COC2)cc2c1C(c1cc(F)ccc1Cl)NC2=O)c1cc(F)cc(C(F)(F)F)c1 (stereo not drawn) [Compound I-344], the IC50 is reported as ≤ 0.1 µM.
For CN1CCN(c2cc(NC(=O)c3cc(F)cc(C(F)(F)F)c3)c3c(c2)C(=O)NC3c2cc(F)ccc2Cl)CC1 (stereo not drawn) [Compound I-304], the IC50 was ≤ 0.1 µM.
Cc1ccccc1C1NC(=O)c2nccc(NC(=O)c3cc(F)cc(C(F)(F)F)c3)c21 (stereo not drawn) [Compound I-142] gave an IC50 of 0.1 to 0.5 µM.
Work on O=C1NC(c2cc(F)ccc2Cl)c2c(NC(=O)N3CCC(O)C3)cc(-c3ccc4ncnn4c3)cc21 (stereo not drawn) [Compound I-1718] yielded an IC50 of 10 to 100 µM.
Molecule COc1cnccc1-c1cc(NC(=O)c2cc(F)cc(Cl)c2)c2c(n1)C(=O)NC2c1cc(F)ccc1Cl (stereo not drawn) [Compound I-505] has an IC50 of 0.1 to 0.5 µM.
O=C(Nc1cc(Br)cc2c1C(c1cc(F)ccc1Cl)NC2=O)c1ccc(C(F)(F)F)o1 (stereo not drawn) [Compound I-1423] was tested, and the IC50 was 1 to 10 µM.
Cc1ccccc1C1NC(=O)c2cccc(NC(=O)c3cnc(OCC(C)C)c(F)c3)c21 (stereo not drawn) [Compound I-111] gave an IC50 of 10 to 100 µM.
In the case of O=C1N[C@@H](c2cc(F)ccc2Cl)c2c(NC(=O)N3C[C@](O)(C(F)(F)F)c4cc(F)ccc43)cccc21 (single isomer, unassigned) [Compound I-2515], the IC50 is reported as 1 to 10 µM.
O=C1N[C@@H](c2cc(F)ccc2Cl)c2c(NC(=O)N3C[C@@](O)(C(F)F)c4cc(F)ccc43)cc(Cl)cc21 (single isomer, unassigned) [Compound I-2588] showed an IC50 of 1 to 10 µM.
In the case of CN1CCN(c2cc(-c3ccc4ncnn4c3)cc3c2C(c2cc(F)ccc2Cl)NC3=O)CC1 (stereo not drawn) [Compound I-1952], the IC50 is reported as 10 to 100 µM.
In the case of CC(C)(O)c1cc(NC(=O)c2cc(F)cc(C(F)(F)F)c2)c2c(c1)C(=O)NC2c1cc(F)ccc1C(F)F (stereo not drawn) [Compound I-239], the IC50 is reported as ≤ 0.1 µM.
O=C1NC(c2cc(F)ccc2Cl)c2c(NC(=O)C3CCC4C(C3)C4(F)F)cc(Br)cc21 (stereo not drawn) [Compound I-1623] was tested, and the IC50 was 1 to 10 µM.
In the case of O=C1N[C@@H](c2cc(F)ccc2Cl)c2c(NC(=O)N3C[C@H](O)c4cc(F)c(F)cc43)cccc21 (single isomer, unassigned) [Compound I-2291], the IC50 is reported as 1 to 10 µM.
CC(=O)N1CCC12CN(c1cc(NC(=O)c3cc(F)cc(C(F)(F)F)c3)c3c(c1)C(=O)NC3c1cc(F)ccc1Cl)C2 (stereo not drawn) [Compound I-1387] was tested, and the IC50 was 0.1 to 0.5 µM.
O=C1NC(c2cc(F)ccc2Cl)c2c(NC(=O)c3cc(F)cc4cn[nH]c34)cccc21 (stereo not drawn) [Compound I-594] was tested, and the IC50 was 0.5 to 1 µM.
O=C(Nc1cc(CS(=O)(=O)c2ccncc2)cc2c1C(c1cc(F)ccc1Cl)NC2=O)c1cc(F)cc(C(F)(F)F)c1 (stereo not drawn) [Compound I-1495] was tested, and the IC50 was ≤ 0.1 µM.
O=C1CCC[C@@H]([C@@H]2NC(=O)c3cccc(NC(=O)c4cc(F)cc(C(F)(F)F)c4)c32)C1 (single isomer, unassigned) [Compound I-2255] was tested, and the IC50 was 10 to 100 µM.
In the case of [2H]C1([2H])N(C(=O)Nc2cccc3c2[C@@H](c2cc(F)ccc2Cl)NC3=O)c2ccc(F)cc2[C@@]1(O)C(F)(F)F (single isomer, unassigned) [Compound I-2594], the IC50 is reported as 1 to 10 µM.
O=C(Nc1cc(-c2cscn2)cc2c1[C@@H](c1cc(F)ccc1Cl)NC2=O)c1cc(F)cc(C(F)(F)F)c1 [Compound I-1085] gave an IC50 of 1 to 10 µM.
For Cc1cccc(C(=O)Nc2cc(Br)cc3c2C(c2cc(F)ccc2Cl)NC3=O)c1 (stereo not drawn) [Compound I-520], the IC50 was 1 to 10 µM.
With CC(C)(O)c1cc(NC(=O)c2cc(F)cc(C(F)(F)F)c2)c2c(n1)C(=O)N[C@@H]2c1cc(F)ccc1Cl [Compound I-271] the IC50 was 1 to 10 µM.
For O=C1N[C@H](c2cc(F)ccc2Cl)c2c(NC(=O)c3csc4ccccc34)cc(Br)cc21 [Compound I-733], the IC50 was 1 to 10 µM.
In the case of O=C1N[C@@H](c2cc(F)ccc2Cl)c2c(NC(=O)N3C[C@@](O)(C(F)F)c4cc(F)ccc43)cccc21 (single isomer, unassigned) [Compound I-2555], the IC50 is reported as 1 to 10 µM.
In the case of CC(C)(C#N)n1cc(-c2cc(NC(=O)N3C[C@](O)(C(F)(F)F)c4cc(F)ccc43)c3c(c2)C(=O)N[C@@H]3c2cc(F)ccc2Cl)cn1 (single isomer, unassigned) [Compound I-2610], the IC50 is reported as 1 to 10 µM.
O=C1NC(c2cc(F)ccc2Cl)c2c(NC(=O)[C@H]3C[C@@H](O)C[C@@H](C(F)(F)F)C3)cc(Br)cc21 (stereo partly drawn) [Compound I-2027] showed an IC50 of 10 to 100 µM.
Work on CN(C)c1cc(NC(=O)N2C[C@@](O)(C(F)(F)F)c3cc(F)ccc32)c2c(n1)C(=O)N[C@H]2c1cc(F)ccc1Cl (single isomer, unassigned) [Compound I-2691] yielded an IC50 of 1 to 10 µM.
With O=C(Nc1cc(-c2cnc(C3CC3)nc2)cc2c1C(c1cc(F)ccc1Cl)NC2=O)c1cc(F)cc(C(F)(F)F)c1 (stereo not drawn) [Compound I-822] the IC50 was ≤ 0.1 µM.
With Nc1nc2cc(-c3cc(NC(=O)c4cc(F)cc(C(F)(F)F)c4)c4c(c3)C(=O)NC4c3cc(F)ccc3Cl)ccc2o1 (stereo not drawn) [Compound I-1531] the IC50 was ≤ 0.1 µM.
For O=C1NC(c2cc(F)ccc2Cl)c2c(NC(=O)C34CC5CC(CC(Cl)(C5)C3)C4)cc(Br)cc21 (stereo not drawn) [Compound I-1179], the IC50 was ≤ 0.1 µM.
In the case of CC1(Cc2cc(NC(=O)c3cc(F)cc(C(F)(F)F)c3)c3c(c2)C(=O)N[C@H]3c2cc(F)ccc2Cl)COC1 [Compound I-818], the IC50 is reported as ≤ 0.1 µM.
With O=C(Nc1cc(Br)cc2c1C(c1cc(F)ccc1Cl)NC2=O)c1ccccc1Cl (stereo not drawn) [Compound I-477] the IC50 was 10 to 100 µM.
With NC1CN(C(=O)Nc2cc(Br)cc3c2C(c2cc(F)ccc2Cl)NC3=O)c2ccccc21 (stereo not drawn) [Compound I-2042] the IC50 was 1 to 10 µM.
O=C(Nc1cc(-c2cnn(-c3cnccn3)c2)cc2c1C(c1cc(F)ccc1Cl)NC2=O)c1cc(F)cc(C(F)(F)F)c1 (stereo not drawn) [Compound I-1608] was tested, and the IC50 was ≤ 0.1 µM.
O=C(Nc1cc(OC[C@H]2CCCN2)cc2c1C(c1cc(F)ccc1Cl)NC2=O)c1cc(F)cc(C(F)(F)F)c1 (mixture of isomers) [Compound I-1457] was tested, and the IC50 was 0.1 to 0.5 µM.
Work on O=C1N[C@@H](c2cc(F)ccc2Cl)c2c(NC(=O)N3C[C@H](O)c4ccc(F)cc43)cccc21 (stereo in doubt) [Compound I-2172] yielded an IC50 of 0.5 to 1 µM.
In the case of Cc1ccccc1[C@@H]1NC(=O)c2nccc(NC(=O)N3CCc4c(F)cc(F)cc43)c21 [Compound I-229], the IC50 is reported as 0.5 to 1 µM.
Cn1cc(-c2cc(NC(=O)c3cc(F)cc(C(F)(F)F)c3)c3c(c2)C(=O)NC3c2cc(F)ccc2Cl)nn1 (stereo not drawn) [Compound I-879] was tested, and the IC50 was ≤ 0.1 µM.
In the case of CC(=O)N1CCCC(C(=O)Nc2cc(-c3ccc4ncnn4c3)cc3c2C(c2cc(F)ccc2Cl)NC3=O)C1 (stereo not drawn) [Compound I-1743], the IC50 is reported as 10 to 100 µM.
In the case of O=C1NC(c2cc(F)ccc2Cl)c2c(NC(=O)N3CCCC34CCCCC4)cccc21 (stereo not drawn) [Compound I-2430], the IC50 is reported as 0.5 to 1 µM.
With O=C(Nc1cc(N2CC(F)(F)C2)cc2c1C(c1cc(F)ccc1Cl)NC2=O)c1cc(F)cc(C(F)(F)F)c1 (stereo not drawn) [Compound I-370] the IC50 was ≤ 0.1 µM.
For O=C(Nc1cc(CS(=O)(=O)Cc2cc[n+]([O-])cc2)cc2c1C(c1cc(F)ccc1Cl)NC2=O)c1cc(F)cc(C(F)(F)F)c1 (stereo not drawn) [Compound I-1471], the IC50 was ≤ 0.1 µM.
For O=C(Nc1cc(-c2ccncc2)nc2c1C(c1cc(F)ccc1Cl)NC2=O)c1cc(F)cc(Cl)c1 (stereo not drawn) [Compound I-458], the IC50 was 0.1 to 0.5 µM.
Cc1ccccc1C1NC(=O)c2cccc(NC(=O)c3csc4cccc(F)c34)c21 (stereo not drawn) [Compound I-67] showed an IC50 of 1 to 10 µM.
O=C(Nc1cc(B(O)O)cc2c1C(c1cc(F)ccc1Cl)NC2=O)c1cc(F)cc(C(F)(F)F)c1 (stereo not drawn) [Compound I-362] was tested, and the IC50 was ≤ 0.1 µM.
Molecule O=C1NC(c2cc(F)ccc2Cl)c2c(NC3CCS(=O)(=O)CC3)cc(-c3ccc4ncnn4c3)cc21 (stereo not drawn) [Compound I-2010] has an IC50 of 10 to 100 µM.
Molecule O=C(Cc1ccccc1C(F)(F)F)Nc1cc(Br)cc2c1C(c1cc(F)ccc1Cl)NC2=O (stereo not drawn) [Compound I-568] has an IC50 of 1 to 10 µM.
O=C1NC(c2cc(F)ccc2Cl)c2c(Nc3ncnc4ccccc34)cc(Br)cc21 (stereo not drawn) [Compound I-864] showed an IC50 of 10 to 100 µM.
In the case of CCC1CCN(C(=O)Nc2cccc3c2C(c2cc(F)ccc2Cl)NC3=O)C1 (stereo not drawn) [Compound I-2420], the IC50 is reported as 10 to 100 µM.
Molecule CS(C)(=O)=Nc1cc(NC(=O)c2cc(F)cc(C(F)(F)F)c2)c2c(c1)C(=O)NC2c1cc(F)ccc1Cl (stereo not drawn) [Compound I-1254] has an IC50 of 0.1 to 0.5 µM.
In the case of N#Cc1cccnc1-c1cc(NC(=O)c2cc(F)cc(C(F)(F)F)c2)c2c(c1)C(=O)NC2c1cc(F)ccc1Cl (stereo not drawn) [Compound I-1408], the IC50 is reported as ≤ 0.1 µM.
[2H]c1nc2cnc(-c3cc(NC(=O)c4cc(F)cc(C(F)(F)F)c4)c4c(c3)C(=O)N[C@H]4c3cc(F)ccc3Cl)cn2n1 [Compound I-2069] was tested, and the IC50 was ≤ 0.1 µM.

From patent US12581252B2, “Substituted pyrrolo[3,4-b]pyridines as PI3K-α inhibitors” (Relay Therapeutics, Inc., priority 2020, dated 2026)
